Consider one compound from patent US11957671B2, “Benzodioxane modulators of leukotriene A4 hydrolase (LTA4H) for prevention and treatment of aging-associated diseases” (Alkahest, Inc., priority 2021, dated 2024).

Each structure is given as a SMILES string.

Assay [1] deals with aged mice. In words: CA1 synapse density by histology. The class given is in vivo, mouse. The conditions noted are these: preliminary data, pre- and post-synaptic protein staining.
Assay [2] deals with hippocampal neurons of aged C57BL/6 mice. In words: Single cell RNA sequencing of NeuN+ hippocampal nuclei (CA1, DG). Format: in vivo, mouse. How it is done:
Aged C57BL/6 mice (21 months of age) were treated for 1 month bid po with vehicle, 1 mg/kg Compound 1, or 2.5 mg/kg SC57461A (n=3 mice per treatment group). NucSeq For Mouse Brain Tissue protocol from 10× Genomics was used to isolate mouse hippocampus nuclei. Approximately 65 mg of brain tissue were used per treatment. Nonidet P40 was used to lyse cell walls and isolated nuclei were stained with Draq5 and NeuN antibodies for FACS sorting. Approximately 5,000 nuclei were collected for each sample. Eight samples were collected for each treatment for a total of 40,000 nuclei per treatment. These samples were prepped for sequencing using the 10× Genomics Chromium Next GEM kit.
GO terms are generated using the g:Profiler Web server (https://bitt.cs.ut.ee/gprofiler) to analyze differential regulated gene lists. Reported are the top 20 gene ontology (GO terms) terms from the biological process category, sorted by significance as determined by P-value. This list was filtered to report significant GO terms that include less than 1000 genes.

Assay [3] relates to aged C57BL/6 mice. In words: Long term potentiation (LTP) in hippocampal slices. Format: in vivo, mouse. The conditions noted are these: 1 month bid po, 1 mg/kg Compound 1 or 2.5 mg/kg SC57461A. Here is the method:
Aged C57BL/6 mice (21 months of age) were treated for 1 month bid po with vehicle, 1 mg/kg Compound 1, or 2.5 mg/kg SC57461A (n=5 mice per treatment group). Electrophysical recordings were performed at AfaSci, Inc, as follows. Animals were deeply anesthetized with halothane and decapitated. The brain was quickly taken out and placed into ice-cold artificial cerebrospinal fluid (ACSF) that was continuously bubbled with 5% CO2/95% O2. The ACSF was composed of (in mM) NaCl 130.0, KCl 2.5, KH2PO4 1.2, CaCl2 2.4, MgSO4 1.3, NaHCO326.0 and glucose 10.0 (pH 7.4). Hippocampal slices (400 μm thick) were prepared using a tissue slicer (Stoelting Co., IL) and incubated at room temperature in continuously oxygenated ACSF for at least 1 h before being recorded with submerged mode in chamber (Harvard Apparatus) at room temperature. Data were collected with an Axopatch-2B amplifier and pClamp 10.4 program (Axon Instruments) through digidata 1320A.
Field population spike (PS) was recorded using glass microelectrode filled with ACSF (resistance: 1-3 MO). Biphasic current pulses (0.2 ms duration for one phase, 0.4 ms in total) were delivered in 10 s intervals through a concentric bipolar stimulating electrode (FHC, Inc.). […] To record field population spikes in dorsal dentate gyrus, the stimulating electrode was placed on the hippocampal fissure to stimulate the bypassing perforant pathway fibers and the recording electrode was placed on inner part of granular cell layer. To record field EPSPs in DG, the stimulating electrode was placed on the hippocampal fissure to stimulate the bypassing perforant pathway fibers and the recording electrode was placed on inner part of granular cell layer. Slices were recorded within 8 hours after dissection. Titanic stimulation consisted of 2 trains of 100 pulses (0.4 ms bipolar pulse duration, 100 Hz) lasting for 1 second with 5 seconds of interval. The slope of EPSP and amplitude of population spike were measured from the initial phase of negative wave with Clampfit10.4. Each data point was measured with average of 3 consecutive traces. LTP was plotted as the percentage to baseline following high frequency stimulation (mean±SEM).

Assay [4] has as its system mice. Conditions: previous studies; cited from earlier work.
Assay [5] relates to aged C57BL/6 mice. In words: Unbiased single cell RNA sequencing of brain tissue. Format: in vivo, mouse. The conditions noted are these: 2.5 mg/kg bid P.O. 1 month. Here is the method:
Aged C57BL/6 mice (21 months of age) were treated for 1 month bid P.O. with vehicle or 2.5 mg/kg SC57461A (n=3 mice per treatment group). One cortical cap (cortex and hippocampus) from each mouse was isolated and cells were dissociated and sorted using Sony Multi-Application Cell Sorter MA900. Unbiased RNA sequencing from single brain cells were analyzed according to techniques described previously (Yousf H, et al., Bio Protoc., 8(22):e3091 (2018), which is herein incorporated by reference in its entirety).

Assay [6] concerns purified endothelial cells from the brains of aged C57BL/6 mice. Put plainly: Microbulk qPCR of endothelial genes. Format: in vivo, mouse. The conditions noted are these: 1 month bid P.O., 1 mg/kg Compound 1 or 2.5 mg/kg SC57461A. How it is done: Downregulation of the detrimental genes Bsg, Gbp4, and CXCL12 in purified endothelial cells from the brains of mice treated with LTA4H inhibitors Compound 1 or SC57461A were compared to those of vehicle treated mice. Gene expression was measured by qPCR from 500 sorted endothelial cells and was normalized to GAPDH control.
Aged C57BL/6 mice (21 months of age) were treated for 1 month bid P.O. with vehicle, 1 mg/kg Compound 1, or 2.5 mg/kg SC57461A (n=3 mice per treatment group). One cortical cap (cortex and hippocampus) from each mouse was isolated and cells were dissociated using Miltenyi Neutral Dissociation Kit (#130-092-628). Cells were sorted using Sony Multi-Application Cell Sorter MA900 into clean, RNAase free 200 uL PCR strip tube with 5 uL RNAlater at a concentration of 500 cells per tube. RNA was isolated follow kit protocol for Qiagen RNeasy Micro Kit (#74004). cDNA was synthesized using SuperScript III Kit Protocol and qPCR assays were run using TaqMan or SYBR green primers.
Downregulation of the beneficial gene, Plat, in purified endothelial cells from the brains of mice treated with LTA4H inhibitors Compound 1 or SC57461A were compared to those of vehicle treated mice. Gene expression was measured by qPCR from 500 sorted endothelial cells and was normalized to GAPDH control.

The subject of assay [7] is brain endothelial cells of aged C57BL/6 mice. Put plainly: Single cell RNA sequencing of brain endothelial cells (BECs). Format: in vivo, mouse. Here is the method: Male C57BL/6 mice aged 20-21 months were treated with Vehicle or SC-57461A commercially available LTA4H inhibitor. The mice were dosed with SC-57461A at 2.5 mg/kg PO bid for one month. Mice were anesthetized and blood and tissues were collected for further analysis. Blood was collected via cardiac puncture in syringes pre-filled with Heparin. Brains were collected following ACSF perfusion and processed for single cell RNA sequencing of labeled endothelial cells.
Brain endothelial cells (BECs) were sorted, sequenced, and analyzed based on techniques known to those having ordinary skill in the art. […] Gates were determined to separate CD31-positive, CD11b-negative endothelial cells from CD11b-positive, CD31-negative microglia. […]
Aged C57BL/6 mice (21 months of age) were treated for 1 month bid P.O. with vehicle, 1 mg/kg Compound 1, or 2.5 mg/kg SC57461A (n=3 mice per treatment group). Brain endothelial cells were sorted, sequenced and analyzed as described in Example 12 (See Chen M B, et al., Cell Rep, 30(13):4418-32e4 (2020) which is herein incorporated by reference in its entirety).
GO terms are generated using the g:Profiler Web server (https://bitt.cs.ut.ee/gprofiler) to analyze differential regulated gene lists. Reported are the top 20 gene ontology (GO terms) terms from the biological process category, sorted by significance as determined by P-value. […]

The mark [8] stands for this setting: 1 month bid po, 1 mg/kg Compound 1 or 2.5 mg/kg SC57461A.

For `CN(CCCOc1ccc(Cc2ccccc2)cc1)CCC(=O)O.Cl` [SC-57461A, reference compound], in assay [1], the “synapse density in the CA1 region of the hippocampus” value is on record as “no trend in increased CA1 synapse density”. Moreover, in assay [2] (setting [8]), the “CA1 neuronal gene changes” value is given as “many significant gene changes to neurons in the CA1 region of the hippocampus”, the “DG neuronal gene changes” value is “many significant gene changes to neurons in the DG region of the hippocampus”, the “Dcc gene expression in the dentate gyrus” value is “not significantly impacted” and the “Spock3 gene expression in the dentate gyrus” value is on record as “not significantly impacted”. In assay [2] (long-term treatment), the “Biological Process GO terms, CA1 hippocampal neurons” value was “changes to synapses” and the “Biological Process GO terms, DG hippocampal neurons” value was “changes to synapses”. Moreover, in assay [3], the “LTP, CA1 region of the hippocampus” value is “did not show the same LTP increase” and the “LTP, DG region of the hippocampus” value is on record as “did not show the same LTP increase”. Besides, the memory domains improved result in assay [4] is “only improved spatial memory”. In assay [5], the “Biological Process GO terms, astrocytes” value is “changes to astrocytes”; the “Biological Process GO terms, endothelial” value is on record as “changes to endothelial”; the “Biological Process GO terms, pericytes” value is “changes to pericyte”; the astrocyte gene changes entry is “many significant gene changes to astrocytes”. Moreover, in assay [5], the “endothelial cell gene changes” value is given as “many significant gene changes to brain endothelial cells” and the pericyte gene changes result is “many significant gene changes to pericytes”. In assay [6], the Bsg gene expression entry is given as “down regulation of Bsg gene expression”, the CXCL12 gene expression result is on record as “down regulation of CXCL12 gene expression”, the Gpb4 gene expression result is recorded as “down regulation of Gpb4 gene expression” and the Plat gene expression entry is “up regulation of Plat gene expression”. In addition, the “Biological Process GO terms, BECs” value in assay [7] (2.5 mg/kg PO bid one month) is “changes to the endothelial milieu”. Moreover, in assay [7] (2.5 mg/kg bid P.O. 1 month), the “endothelial cell gene changes, enriched brain endothelial cells” value was “many significant gene changes to brain endothelial cells”.
